Assay results: ChEMBL document CHEMBL1133519, “Novel design of nonpeptide AVP V(2) receptor agonists: structural requirements for an agonist having 1-(4-aminobenzoyl)-2,3,4, 5-tetrahydro-1H-1-benzazepine as a template” (J Med Chem, 2000)

Target: T1, Vasopressin V2 receptor (Rattus norvegicus, UniProt Q00788)
Assay: Binding affinity towards rat Vasopressin V2 receptor

T1 sequence (Q00788 whole entry): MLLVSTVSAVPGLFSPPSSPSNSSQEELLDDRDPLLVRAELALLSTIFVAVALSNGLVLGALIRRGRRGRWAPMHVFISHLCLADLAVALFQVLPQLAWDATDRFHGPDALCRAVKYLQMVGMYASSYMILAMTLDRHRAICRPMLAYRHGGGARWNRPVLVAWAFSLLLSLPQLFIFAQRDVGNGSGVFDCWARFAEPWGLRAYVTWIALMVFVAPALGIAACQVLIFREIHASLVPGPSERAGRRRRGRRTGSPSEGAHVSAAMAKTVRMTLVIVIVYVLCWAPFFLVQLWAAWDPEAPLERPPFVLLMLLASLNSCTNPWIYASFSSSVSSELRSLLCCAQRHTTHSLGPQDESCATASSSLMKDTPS

Row | SMILES | IC50 [nM]
1 | O=C(c1ccc(N2CCCC2)cc1Cl)N1CCCCc2ccccc21 | 150

Target: Vasopressin V1a receptor (Homo sapiens, UniProt P37288)
Sequence (P37288 whole entry): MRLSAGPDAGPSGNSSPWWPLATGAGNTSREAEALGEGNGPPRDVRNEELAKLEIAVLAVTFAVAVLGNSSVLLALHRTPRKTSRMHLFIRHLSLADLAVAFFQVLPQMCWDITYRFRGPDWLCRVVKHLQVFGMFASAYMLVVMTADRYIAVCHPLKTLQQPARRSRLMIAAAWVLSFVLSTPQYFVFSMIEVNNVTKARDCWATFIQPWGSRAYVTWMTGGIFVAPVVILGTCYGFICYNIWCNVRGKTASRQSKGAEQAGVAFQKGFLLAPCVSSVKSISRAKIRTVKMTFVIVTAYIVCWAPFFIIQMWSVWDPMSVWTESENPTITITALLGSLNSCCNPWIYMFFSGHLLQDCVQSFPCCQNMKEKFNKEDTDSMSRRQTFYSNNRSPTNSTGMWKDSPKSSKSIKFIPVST
Assay: Binding affinity towards Vasopressin V1a receptor in human liver

Row | SMILES | Ki [nM]
2 | CC(=O)NCCCOc1ccc(C(=O)N2CCC(N3C(=O)CCc4ccccc43)CC2)cc1 | 14000

Target: T2, Vasopressin V2 receptor (Homo sapiens, UniProt P30518)
T2 sequence (P30518 whole entry): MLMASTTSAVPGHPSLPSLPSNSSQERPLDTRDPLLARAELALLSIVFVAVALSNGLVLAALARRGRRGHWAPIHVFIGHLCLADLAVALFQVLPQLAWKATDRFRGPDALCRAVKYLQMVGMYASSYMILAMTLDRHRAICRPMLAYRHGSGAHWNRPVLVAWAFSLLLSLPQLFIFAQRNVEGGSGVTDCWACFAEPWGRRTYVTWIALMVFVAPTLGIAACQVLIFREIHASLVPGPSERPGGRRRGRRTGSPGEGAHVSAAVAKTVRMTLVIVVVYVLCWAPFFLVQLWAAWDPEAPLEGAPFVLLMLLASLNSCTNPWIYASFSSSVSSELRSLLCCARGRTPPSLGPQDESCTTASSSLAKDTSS
Assay: Inhibition of [3H]AVP binding to human Vasopressin V2 receptor expressed in HeLa cells
Type: cell-based

Row | SMILES | IC50 [nM]
3 | CCNc1ccc(C(=O)N2CCCCc3ccccc32)c(Cl)c1 | 34
4 | O=C(c1ccc(N2CCCCC2)cc1Cl)N1CCCCc2ccccc21 | 120
5 | Cc1ccn(-c2ccc(C(=O)N3CCCCc4ccccc43)c(Cl)c2)n1 | 13
6 | CCCNc1ccc(C(=O)N2CCCCc3ccccc32)c(Cl)c1 | 18
7 | O=C(c1ccc(N2CCCC2)cc1Cl)N1CCCCc2cc(Cl)ccc21 | 16
8 | C=CCNc1ccc(C(=O)N2CCCCc3ccccc32)c(Cl)c1 | 5.9
9 | CC1CCN(c2ccc(C(=O)N3CCCCc4ccccc43)c(Cl)c2)C1 (stereo not drawn) | 51
10 | CCCCCNc1ccc(C(=O)N2CCCCc3ccccc32)c(Cl)c1 | 31
11 | CCCCNc1ccc(C(=O)N2CCCCc3ccccc32)c(Cl)c1 | 22
12 | O=C(c1ccc(-n2cccn2)cc1Cl)N1CCCCc2ccccc21 | 8.8
13 | Cc1cc(N)ccc1C(=O)N1CCCCc2cc(Cl)ccc21 | 4.1
14 | CCN(CC)c1ccc(C(=O)N2CCCCc3ccccc32)c(Cl)c1 | 19
15 | O=C(c1ccc(N2CCCC2)cc1)N1CCCCc2cc(Cl)ccc21 | 210
16 | CN(C)c1ccc(C(=O)N2CCCCc3cc(Cl)ccc32)c(Cl)c1 | 13
17 | CNc1ccc(C(=O)N2CCCCc3ccccc32)c(Cl)c1 | 35
18 | O=C(c1ccc(N2CCCC2)cc1Cl)N1CCCCc2ccccc21 | 9
19 | O=C(c1ccc(-n2cccc2)cc1Cl)N1CCCCc2ccccc21 | 7.5
20 | O=C(c1ccc(-n2cccc2)cc1)N1CCCCc2ccccc21 | 320
21 | O=C(c1ccc(N2CCCC2)cc1)N1CCCCc2ccccc21 | 1000
22 | CN(C)c1ccc(C(=O)N2CCCCc3ccccc32)c(Cl)c1 | 18
23 | CCNc1ccc(C(=O)N2CCCCc3cc(Cl)ccc32)c(Cl)c1 | 5
24 | Nc1ccc(C(=O)N2CCCCc3ccccc32)cc1 | 180

Target: Vasopressin V1a receptor (Rattus norvegicus, UniProt P30560)
Sequence (P30560 whole entry): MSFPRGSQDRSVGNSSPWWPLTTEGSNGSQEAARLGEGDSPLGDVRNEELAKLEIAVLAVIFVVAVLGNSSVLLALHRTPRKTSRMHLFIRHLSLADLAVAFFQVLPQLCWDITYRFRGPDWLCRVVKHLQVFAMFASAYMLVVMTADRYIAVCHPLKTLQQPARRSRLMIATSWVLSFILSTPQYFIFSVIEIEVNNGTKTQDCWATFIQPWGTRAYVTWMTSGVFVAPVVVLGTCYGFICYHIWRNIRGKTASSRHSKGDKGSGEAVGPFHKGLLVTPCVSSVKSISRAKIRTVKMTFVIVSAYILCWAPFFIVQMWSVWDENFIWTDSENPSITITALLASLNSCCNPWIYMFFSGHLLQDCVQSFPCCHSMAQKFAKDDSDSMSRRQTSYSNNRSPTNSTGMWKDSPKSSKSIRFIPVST
Assay: Binding affinity towards rat Vasopressin V1a receptor […]

Row | SMILES | IC50 [nM]
25 | Cc1ccccc1OCC(=O)Nc1ccc(C(=O)N2CCCCc3cc(Cl)ccc32)c(C)c1 | 5100

Target: not listed separately
Assay: Binding affinity towards AVP receptor

Row | SMILES | Ki [nM]
26 | Cc1ccccc1C(=O)Nc1ccc(C(=O)N2CCCC(O)c3cc(Cl)ccc32)c(C)c1 (stereo not drawn) [TOLVAPTAN] | 0.79

Target: T2, Vasopressin V2 receptor
Assay: Concentration which inhibit [3H]AVP binding to human Vasopressin V2 receptor coded HeLa cells by 50%
Type: cell-based

Row | SMILES | IC50 [nM]
27 | Cc1ccccc1OCC(=O)Nc1ccc(C(=O)N2CCCCc3cc(Cl)ccc32)c(C)c1 | 0.95

Target: T1, Vasopressin V2 receptor
Assay: Binding affinity towards rat Vasopressin V2 receptor in vitro

Row | SMILES | IC50 [nM]
28 | Cc1ccccc1OCC(=O)Nc1ccc(C(=O)N2CCCCc3cc(Cl)ccc32)c(C)c1 | 38
